# Test results reported in patent publication US20250074901A1, “NOVEL HETEROARYL COMPOUNDS” (ICAGEN, LLC, priority 2021, published 2025).
# pEC50: −log10 of the molar value.
# Biological target: T1, Kv7.2 (Homo sapiens, UniProt O43526)
# T1 construct: expressed in transfected cells
# Assay: Activation of Kv7.2 (in vitro assay, concentration response curve)
# Type: cell-based
# Details: for Emax: Kv7.2 activation max %; for pEC50: activation of Kv7.2
# Procedure: The term “EC50” in this application is defined as: the agonistic effect of a compound can be determined by testing the compound in an in vitro assay as described herein, whereby the effect of the compound is measured across a range of compound concentrations. The resulting data is plotted as a concentration response curve, which typically follows a sigmoidal function, whereby the concentration of the compound is plotted on the x axis and the response (agonistic effect) is plotted on the y axis. The term “EC50” is the “half maximal effective concentration” and denotes the concentration of a particular compound required to obtain 50% of the maximum response (Emax) which is observed for that compound in the given in vitro assay.
Structure (SMILES),Emax [%],pEC50
"O=C(NCc1ccnc(OC(F)F)c1)N[C@@H]1CCC[C@H](C(F)(F)F)C1 (racemic) [Example 138, 1-[[2-(difluoromethoxy)pyridin-4-yl]methyl]-3-[rac-(1R,3S)-3-(trifluoromethyl)cyclohexyl]urea]",40,7.00
"O=C1CC2CCC(C1)C2NC(=O)NCc1ccnc(OC(F)F)c1 (racemic) [Example 139, 1-[[2-(difluoromethoxy)pyridin-4-yl]methyl]-3-[rac-(1R,5S)-3-oxo-8-bicyclo[3.2.1]octanyl]urea]",61,5.28
"C[C@]1(O)CCCC[C@@H]1NC(=O)NCc1ccnc(OC(F)F)c1 (racemic) [Example 148, 1-[[2-(difluoromethoxy)pyridin-4-yl]methyl]-3-[rac-(1R,2R)-2-hydroxy-2-methylcyclohexyl]urea]",64,5.29
"O=C(NCc1ccnc(OC(F)F)c1)N[C@@H]1CCC(F)(F)C[C@H]1O (racemic) [Example 154, 1-[[2-(difluoromethoxy)pyridin-4-yl]methyl]-3-[rac-(1R,2R)-4,4-difluoro-2-hydroxycyclohexyl]urea]",60,5.67
"O=C(NCc1ccnc(OC(F)F)c1)NC1C[C@H]2C[C@@H]1CC2(F)F (mixture of isomers) [Example 165, 1-[[2-(difluoromethoxy)pyridin-4-yl]methyl]-3-[rac-(1R,4R)-5,5-difluoro-2-bicyclo[2.2.1]heptanyl]urea]",94,6.60
"O=C(NCc1ccnc(OC(F)F)c1)N[C@@H]1[C@H]2CCC(F)(F)[C@H]21 (racemic) [Example 172, 1-[[2-(difluoromethoxy)pyridin-4-yl]methyl]-3-[rac-(1R,5S,6R)-2,2-difluoro-6-bicyclo[3.1.0]hexanyl]urea]",66,6.34
"O=C(NCc1ccnc(OCF)c1)N[C@@H]1[C@H]2CCC(F)(F)[C@H]21 (racemic) [Example 176, 1-[[2-(fluoromethoxy)pyridin-4-yl]methyl]-3-[rac-(1R,5S,6R)-2,2-difluoro-6-bicyclo[3.1.0]hexanyl]urea]",62,6.05
"O=C(NCc1ccnc(OC(F)F)c1)N[C@H]1CC[C@](O)(C(F)(F)F)C1 (racemic) [Example 187, 1-[[2-(difluoromethoxy)pyridin-4-yl]methyl]-3-[rac-(1R,3S)-3-hydroxy-3-(trifluoromethyl)cyclopentyl]urea]",40,5.94
"O=C(NCc1ccnc(OC(F)F)c1)N[C@@H]1CC[C@H](C(F)F)C1 (racemic) [Example 193, 1-[[2-(difluoromethoxy)pyridin-4-yl]methyl]-3-[rac-(1R,3S)-3-(difluoromethyl)cyclopentyl]urea]",48,6.66
"O=C(NCc1ccnc(OC(F)F)c1)NC1CC[C@@H]2CC[C@H]12 (mixture of isomers) [Example 196, 1-[[2-(difluoromethoxy)pyridin-4-yl]methyl]-3-[rac-(1R,5R)-2-bicyclo[3.2.0]heptanyl]urea]",75,7.15
"O=C(NCc1ccnc(OC(F)F)c1)NC1C2CCC1CC(F)(F)C2 (racemic) [Example 197, 1-[[2-(difluoromethoxy)pyridin-4-yl]methyl]-3-[rac-(1R,5S)-3,3-difluoro-8-bicyclo[3.2.1]octanyl]urea]",54,6.30
"O=C(NCc1ccnc(OCC(F)CF)c1)N[C@H]1CC[C@@H](C(F)(F)F)C1 (mixture of isomers) [Example 225, 1-[[2-(2,3-difluoropropoxy)pyridin-4-yl]methyl]-3-[rac-(1R,3S)-3-(trifluoromethyl)cyclopentyl]urea]",52,6.51
"O=C(NCc1ccnc(OC(F)F)c1)NC1C[C@@H](F)[C@@H](F)C1 (mixture of isomers) [Example 234, 1-[[2-(difluoromethoxy)pyridin-4-yl]methyl]-3-[rac-(3R,4S)-3,4-difluorocyclopentyl]urea]",56,5.37
"O=C(NCc1ccnc(OC(F)F)c1)N[C@@H]1C[C@H]2C[C@@H]1C(F)(F)C2 (racemic) [Example 236, 1-[[2-(difluoromethoxy)pyridin-4-yl]methyl]-3-[rac-(1R,2S,4S)-6,6-difluoro-2-bicyclo[2.2.1]heptanyl]urea]",87,6.34
"O=C(NCc1ccnc(OC(F)F)c1)N[C@@H]1CC[C@@H]1C(F)(F)F (racemic) [Example 255, 1-[[2-(difluoromethoxy)pyridin-4-yl]methyl]-3-[rac-(1R,2S)-2-(trifluoromethyl)cyclobutyl]urea]",78,5.59
"O=C(NCc1ccnc(CC(F)(F)F)c1)N[C@H]1CCC[C@@H](C(F)(F)F)C1 (racemic) [Example 276, 1-[rac-(1R,3S)-3-(trifluoromethyl)cyclohexyl]-3-[[2-(2,2,2-trifluoroethyl)pyridin-4-yl]methyl]urea]",62,6.27
"O=C(NCc1ccnc(OC(F)F)c1)N[C@@H]1CC[C@@H](C(F)(F)F)C1 (single isomer, unassigned) [Example 206]",75,6.31
"O=C(NCc1ccnc(OC(F)F)c1)N[C@H]1CC[C@H](C(F)(F)F)C1 (single isomer, unassigned) [Example 207]",58,6.64
"O=C(Nc1cccc(Cl)c1)NC(CO)c1ccnc(OC(F)F)c1 (single isomer, unassigned) [Example 263]",73,6.51
"O=C(NC(CO)c1ccnc(OC(F)F)c1)N[C@@H]1COc2ccccc2C1 (stereo in doubt) [Example 278, rel-1-[1-[2-(difluoromethoxy)pyridin-4-yl]-2-hydroxyethyl]-3-[(3S)-3,4-dihydro-2H-chromen-3-yl]urea]",52,6.37
"O=C(NCc1ccnc(-n2cccn2)c1)N[C@@H]1CCOc2ccccc21 [Example 1, 1-[(4R)-3,4-dihydro-2H-chromen-4-yl]-3-[(2-pyrazol-1-ylpyridin-4-yl)methyl]urea]",54,5.62
"O=C(NCc1ccnc(-n2cccn2)c1)NC1CCCC1 [Example 2, 1-cyclopentyl-3-[(2-pyrazol-1-ylpyridin-4-yl)methyl]urea]",74,5.36
"O=C(NCc1ccnc(-n2cccn2)c1)Nc1cccc(Cl)c1 [Example 4, 1-(3-chlorophenyl)-3-[(2-pyrazol-1-ylpyridin-4-yl)methyl]urea]",60,6.37
"CC1CC(C)(C)CCC1NC(=O)NCc1ccnc(C#N)c1 (stereo not shown) [Example 5, 1-[(2-cyanopyridin-4-yl)methyl]-3-(2,4,4-trimethylcyclohexyl)urea]",60,5.43
"O=C(NCc1ccnc(-n2cccn2)c1)NC12CC(C(F)(F)F)(C1)C2 [Example 6, 1-[(2-pyrazol-1-ylpyridin-4-yl)methyl]-3-[3-(trifluoromethyl)-1-bicyclo[1.1.1]pentanyl]urea]",58,5.94
"O=C(NCc1ccnc(-n2ccnc2)c1)NC1CCCC(C2CC2)C1 (stereo not shown) [Example 8, 1-(3-cyclopropylcyclohexyl)-3-[(2-imidazol-1-ylpyridin-4-yl)methyl]urea]",52,5.82
